Assay [1] concerns the target T1, M1 muscarinic receptor (Homo sapiens, UniProt P11229).
T1 construct: expressed in transfected cells; host or cells: CHO (M1-CHO)
T1 sequence (P11229 1-460): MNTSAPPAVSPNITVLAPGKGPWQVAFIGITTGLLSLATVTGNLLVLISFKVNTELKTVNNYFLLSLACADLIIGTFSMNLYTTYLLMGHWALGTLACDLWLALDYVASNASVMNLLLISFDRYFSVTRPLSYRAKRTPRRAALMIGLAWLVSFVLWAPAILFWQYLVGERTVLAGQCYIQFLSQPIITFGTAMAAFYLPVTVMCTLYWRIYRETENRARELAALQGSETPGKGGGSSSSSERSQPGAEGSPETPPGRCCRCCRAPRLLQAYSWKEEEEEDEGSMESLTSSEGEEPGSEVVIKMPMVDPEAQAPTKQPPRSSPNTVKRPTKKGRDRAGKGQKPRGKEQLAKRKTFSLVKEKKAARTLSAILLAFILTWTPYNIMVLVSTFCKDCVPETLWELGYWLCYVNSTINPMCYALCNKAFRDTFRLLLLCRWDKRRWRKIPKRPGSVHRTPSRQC
Put plainly: Functional mobilization of intracellular calcium (FLIPR), M1-CHO cells. Format: cell-based. The conditions noted are these: for Emax: 100% efficacy is the maximum response obtained using Carbachol as a control; for M1 Activity: M1-CHO cells, FLIPR calcium mobilization. Summed up:
(§1)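 CHO cells expressing M1 or M4, loaded with Fluo-3 AM or Calcium 3 dye with 1 mM probenecid, 0.5% DMSO final. Agonist mode: compound added directly; antagonist mode: 15 min pre-incubation (or co-application) before carbachol at EC80. Fluorescence recorded 60 s on FLIPR.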
(In general: Calcium assays in cells follow changes in intracellular calcium, usually with a dye or a luminescent sensor.)

The target of assay [2] is T2, M4 muscarinic receptor (Homo sapiens, UniProt P08173).
T2 construct: expressed in transfected cells; host or cells: CHO (M4-CHO)
T2 sequence (P08173 1-479): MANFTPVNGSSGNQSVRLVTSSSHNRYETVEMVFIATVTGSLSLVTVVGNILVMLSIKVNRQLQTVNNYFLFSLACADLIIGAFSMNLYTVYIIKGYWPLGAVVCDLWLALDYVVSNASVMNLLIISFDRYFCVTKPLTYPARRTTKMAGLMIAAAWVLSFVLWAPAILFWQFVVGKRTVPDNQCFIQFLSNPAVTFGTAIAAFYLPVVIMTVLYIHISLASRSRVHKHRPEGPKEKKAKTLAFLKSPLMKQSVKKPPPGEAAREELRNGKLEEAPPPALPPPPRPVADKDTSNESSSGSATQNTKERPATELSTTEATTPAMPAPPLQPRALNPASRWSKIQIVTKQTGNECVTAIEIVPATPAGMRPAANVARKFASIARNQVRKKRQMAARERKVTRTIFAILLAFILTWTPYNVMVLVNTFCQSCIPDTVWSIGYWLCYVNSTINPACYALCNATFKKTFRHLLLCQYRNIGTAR
The assay can be described thus: Functional mobilization of intracellular calcium (FLIPR), M4-CHO cells. Format: cell-based. The conditions noted are these: for Emax: 100% efficacy is the maximum response obtained using Carbachol as a control; for M4 Activity: M4-CHO cells, FLIPR calcium mobilization. Summed up:
as §1

Each structure is given as a SMILES string.

`CCOC(=O)N1CCC(N2CCC3(CC2)CN(C(=O)C(C)C)Cc2ccccc23)CC1` [compound 279]: in assay [1], the Emax (in general, the maximal effect, on the per cent scale that the assay sets) is 25 to 100% and the “M1 Activity” value was “+++ (activity was measured to be less than 1.0 μM)”. Further, in assay [2], the Emax lay within 25 to 100% and the “M4 Activity” value was “+++ (activity was measured to be less than 1.0 μM)”.
As to `CCOC(=O)N1CCC(N2CCC3(CC2)CN(C(=O)NC2CCCC2)Cc2ccccc23)CC1` [compound 283], in assay [1], the Emax was in the range of 25 to 100% and the “M1 Activity” value was “+++ (activity was measured to be less than 1.0 μM)”. Further, in assay [2], the Emax was in the range of 25 to 100% and the “M4 Activity” value is “+++ (activity was measured to be less than 1.0 μM)”.
Consider `CCOC(=O)N1CCC(CN2CCC3(CC2)CN(C(=O)C2CCC2)Cc2ccccc23)CC1` [compound 284], for which, in assay [1], the Emax is 25 to 100% and the “M1 Activity” value is “+++ (activity was measured to be less than 1.0 μM)”. In assay [2], the Emax was in the range of 25 to 100% and the “M4 Activity” value is reported as “+++ (activity was measured to be less than 1.0 μM)”.
For the compound `CCOC(=O)N1CCC(N2CCC3(CC2)CN(C(C)=O)Cc2ccccc23)CC1` [compound 286], in assay [1], the Emax is 25 to 100% and the “M1 Activity” value is “+++ (activity was measured to be less than 1.0 μM)”. Besides, in assay [2], the Emax lay within 25 to 100% and the “M4 Activity” value was “+++ (activity was measured to be less than 1.0 μM)”.
As to `CCCOC(=O)N1CC(CN2CCC3(CC2)CN(C(C)=O)Cc2ccccc23)C1` [compound 287], in assay [1], the Emax was < 25% and the “M1 Activity” value is “+ (activity was measured to be greater than 5.0 μM)”. In assay [2], the maximum response (Emax) is < 25% and the “M4 Activity” value is “+ (activity was measured to be greater than 5.0 μM)”.
In the case of `CCOC(=O)N1CCC(CN2CCC3(CC2)CN(C(=O)N(C)C)Cc2ccccc23)CC1` [compound 288], in assay [1], the maximal response (Emax) fell in the range of 25 to 100% and the “M1 Activity” value is “+++ (activity was measured to be less than 1.0 μM)”. Moreover, in assay [2], the maximal response (Emax) is 25 to 100% and the “M4 Activity” value is listed as “+++ (activity was measured to be less than 1.0 μM)”.
For the compound `CC(=O)N1Cc2ccccc2C2(CCN(CC3CCN(C(=O)OC4CCC4)CC3)CC2)C1` [compound 291], in assay [1], the Emax is < 25% and the “M1 Activity” value is given as “+ (activity was measured to be greater than 5.0 μM)”. In assay [2], the Emax was < 25% and the “M4 Activity” value is recorded as “+ (activity was measured to be greater than 5.0 μM)”.
For the compound `CC(=O)N1Cc2ccccc2C2(CCN(C3CCCCC3)CC2)C1` [compound 294], in assay [1], the Emax lay in the range of 25 to 100% and the “M1 Activity” value was “+++ (activity was measured to be less than 1.0 μM)”. For the same compound, in assay [2], the Emax was 25 to 100% and the “M4 Activity” value was “+++ (activity was measured to be less than 1.0 μM)”.
`CCOC(=O)N1CCC(N2CCC3(CC2)CN(C(=O)C2(C)CC2)Cc2ccccc23)CC1` [compound 295]: in assay [1], the Emax lay within 25 to 100% and the “M1 Activity” value was “++ (activity was measured to be from 1.0 μM to 5.0 μM)”. In assay [2], the Emax is < 25% and the “M4 Activity” value was “++ (activity was measured to be from 1.0 μM to 5.0 μM)”.
In the case of `CCCNC(=O)N1Cc2ccccc2C2(CCN(C3CCN(C(=O)OCC)CC3)CC2)C1` [compound 296], in assay [1], the Emax lay in the range of 25 to 100% and the “M1 Activity” value is “+++ (activity was measured to be less than 1.0 μM)”. Besides, in assay [2], the Emax was 25 to 100% and the “M4 Activity” value is “+++ (activity was measured to be less than 1.0 μM)”.
Regarding `CC(=O)N1Cc2ccccc2C2(CCN(Cc3ccccc3O)CC2)C1` [compound 297], in assay [1], the Emax is < 25% and the “M1 Activity” value is given as “+ (activity was measured to be greater than 5.0 μM)”. Moreover, in assay [2], the Emax was < 25% and the “M4 Activity” value is listed as “+ (activity was measured to be greater than 5.0 μM)”.
In the case of `CC(=O)N1Cc2ccccc2C2(CCN(Cc3sc(C)nc3C)CC2)C1` [compound 301], in assay [1], the Emax was < 25% and the “M1 Activity” value is listed as “+ (activity was measured to be greater than 5.0 μM)”. Moreover, in assay [2], the Emax is < 25% and the “M4 Activity” value is given as “+ (activity was measured to be greater than 5.0 μM)”.
As to `CC(=O)N1Cc2ccccc2C2(CCN(C3CCN(C(=O)O[C@H]4CCOC4)CC3)CC2)C1` [compound 302], in assay [1], the Emax lay within 25 to 100% and the “M1 Activity” value is “+++ (activity was measured to be less than 1.0 μM)”. Further, in assay [2], the maximal response (Emax) was 25 to 100% and the “M4 Activity” value is reported as “+++ (activity was measured to be less than 1.0 μM)”.
In the case of `CCOC(=O)N1CCC(CN2CCC3(CC2)CN(C(=O)OC(C)C)Cc2ccccc23)CC1` [compound 309], in assay [1], the Emax lay in the range of 25 to 100% and the “M1 Activity” value is “+++ (activity was measured to be less than 1.0 μM)”. In assay [2], the Emax lay within 25 to 100% and the “M4 Activity” value was “+++ (activity was measured to be less than 1.0 μM)”.
`CCOC(=O)N1CCC(N2CCC3(CC2)CN(S(C)(=O)=O)Cc2ccccc23)CC1` [compound 311]: in assay [1], the Emax fell in the range of 25 to 100% and the “M1 Activity” value was “+++ (activity was measured to be less than 1.0 μM)”. In assay [2], the Emax was in the range of 25 to 100% and the “M4 Activity” value was “+++ (activity was measured to be less than 1.0 μM)”.
Turning to `CC(=O)N1Cc2ccccc2C2(CCN(Cc3ccc(F)cc3F)CC2)C1` [compound 312], in assay [1], the Emax was < 25% and the “M1 Activity” value is listed as “+ (activity was measured to be greater than 5.0 μM)”. In addition, in assay [2], the Emax was < 25% and the “M4 Activity” value is “+ (activity was measured to be greater than 5.0 μM)”.
Consider `CCOC(=O)N1CCC(N2CCC3(CC2)CN(CCC(C)C)Cc2ccccc23)CC1` [compound 313, ethyl 4-(2-isopentyl-2,3-dihydro-1H-spiro[isoquinoline-4,4′-piperidine]-1′-yl)piperidine-1-carboxylate], for which, in assay [1], the Emax was > 100% and the “M1 Activity” value was “+++ (activity was measured to be less than 1.0 μM)”. Also, in assay [2], the Emax is 25 to 100% and the “M4 Activity” value is listed as “+++ (activity was measured to be less than 1.0 μM)”.
On to `CCOC(=O)N1CCC(N2CCC3(CC2)OC(=O)c2ccccc23)CC1` [compound 314, ethyl 4-(3-oxo-3H-spiro[isobenzofuran-1,4′-piperidine]-1′-yl)piperidine-1-carboxylate], for which, in assay [1], the Emax lay in the range of 25 to 100% and the “M1 Activity” value is “+++ (activity was measured to be less than 1.0 μM)”. Further, in assay [2], the Emax fell in the range of 25 to 100% and the “M4 Activity” value is “+++ (activity was measured to be less than 1.0 μM)”.
For `CCOC(=O)N1CCC(CN2CCC3(CC2)CN(C(=O)OC2CCC2)Cc2ccccc23)CC1` [compound 315], in assay [1], the Emax was in the range of 25 to 100% and the “M1 Activity” value is recorded as “+++ (activity was measured to be less than 1.0 μM)”. For the same compound, in assay [2], the Emax lay within 25 to 100% and the “M4 Activity” value is “+++ (activity was measured to be less than 1.0 μM)”.
On to `CCOC(=O)N1C2CCC1CC(N1CCC3(CC1)CN(S(=O)(=O)c1cccs1)Cc1ccccc13)C2` (centres unmarked) [compound 316], for which, in assay [1], the Emax lay in the range of 25 to 100% and the “M1 Activity” value is “+++ (activity was measured to be less than 1.0 μM)”. For the same compound, in assay [2], the Emax was 25 to 100% and the “M4 Activity” value was “+++ (activity was measured to be less than 1.0 μM)”.
For the compound `CC(C)OC(=O)N1C2CCC1CC(N1CCC3(CC1)CN(C(=O)N(C)C)Cc1ccccc13)C2` (centres unmarked) [compound 317], in assay [1], the Emax lay in the range of 25 to 100% and the “M1 Activity” value was “+++ (activity was measured to be less than 1.0 μM)”. Besides, in assay [2], the Emax is 25 to 100% and the “M4 Activity” value is “+++ (activity was measured to be less than 1.0 μM)”.
As to `CCOC(=O)N1C2CCC1CC(N1CCC3(CC1)CN(C(=O)c1ccno1)Cc1ccccc13)C2` (centres unmarked) [compound 318], in assay [1], the Emax fell in the range of 25 to 100% and the “M1 Activity” value was “+++ (activity was measured to be less than 1.0 μM)”. Also, in assay [2], the Emax lay in the range of 25 to 100% and the “M4 Activity” value is given as “+++ (activity was measured to be less than 1.0 μM)”.
Take `CCOC(=O)N1C2CCC1CC(N1CCC3(CC1)CN(C(=O)C1CCC1)Cc1ccccc13)C2` (centres unmarked) [compound 319]: in assay [1], the Emax lay in the range of 25 to 100% and the “M1 Activity” value was “+++ (activity was measured to be less than 1.0 μM)”. In assay [2], the Emax lay within 25 to 100% and the “M4 Activity” value was “+++ (activity was measured to be less than 1.0 μM)”.

The values above are taken from patent US7863449B2, “Modulators of muscarinic receptors” (Vertex Pharmaceuticals Incorporated, priority 2004, dated 2011).
